# Assays:
# [1] = test system: human cardiac fibroblasts; assay: Mitochondrial respiration, Seahorse XF24 Bioanalyzer; assay type: cell-based
# Description: Cell culture experiments utilizing NRTIs were of the following design. Cultures of either human lung or cardiac fibroblasts were cultivated according to standard culture protocols for these cells (Cristofalo, et al., Journal of Tissue Culture Methods 1980, 6:117-121). Parallel sets of cultures were maintained in normal growth media or in normal growth media with the addition of 1 nM rapamycin. Cultures were maintained with 1 nM rapamycin (Enzo Biologicals) for two weeks before exposure to NRTIs. […] Mitochondrial measurements, bioanalyzer measurements, immunoblotting for protein expression and phosphorylation status, and assays for senescence were performed at the end of this 7-day period. Mitochondrial function was measured using the XF cell mito stress test kit on a Seahorse XF24 Bioanalyzer (Seahorse Bioscience). Cells were seeded at a density of 15,000 cells per well in an XF24 microplate. Following acquisition, results were normalized based upon 10^6 cells counted using a Guava EasyCyte Mini (Millipore), where applicable. […] Respiration rates and proton leak were assessed as outlined in published methods (Hill, et al., Biological chemistry 2012, 393:1485-1512). Mitochondrial respiration was calculated based upon oxygen consumption rate measurements in triplicates from cells seeded in at least quadruplicates. Basal respiration represents the initial oxygen consumption rate measurements and maximal respiration represents the oxygen consumption rate measurements following FCCP addition. ATP-linked respiration is represented as the oligomycin-sensitive oxygen change to basal oxygen consumption rate. Proton leak represents the oligmycin insensitive oxygen consumption rate. […] All data was normalized to cell number by counting cells in each well at the completion of the mitochondrial assessments.
# p53 and MDM2 = assay: p53/MDM2 co-immunoprecipitation and p53 forms after proteasome inhibition; assay type: cell-based, human; settings: after proteasome inhibitor
# Description: FIGS. 11A-11F illustrate status of p53 in human cardiac fibroblast cultures exposed to NRTIs and in rapamycin-treated cultures. FIG. 11A is a bar graph illustrating comet assay results for cells exposed to NRTIs or hydrogen peroxide as a positive control. The white bar represents control data; grey bar represents data from cells exposed to 10 or 20 μg/ml NRTI for 7 days; and the black bar represents data from cells exposed to 200 μM hydrogen peroxide for 2 hours. […] FIG. 11B depicts the results of an immunoprecipitation experiment using antibodies against p53. Cell lysates from control and rapamycin-treated cultures, with or without NRTI exposure for 7 days, were subjected to immunoprecipitation using anti-p53 antibodies followed by immunoblot analysis for MDM2 and subsequently for p53. […] FIG. 11F is a bar graph illustrating relative intensity of cytosolic MDM2 staining as determined by Image J Analysis.
# Cell protein extracts were prepared by extracting with radioimmunoprecipitation assay (RIPA) buffer containing a protease inhibitor cocktail (Sigma-Aldrich) and phosphatase inhibitors, NaF and sodium orthovanadate. Protein concentration was quantified using a bicinchoninic acid (BCA) assay (Pierce Biotechnology). […] For co-immunoprecipitation, cell protein extracts were prepared in HNTG buffer containing a protease inhibitor cocktail and quantified using BCA assay. […]
# [2] = test system: dermal atrophy and actinic keratosis; assay: Single site open label study, topical application in a patient; assay type: in vivo, human; settings: 14 days of rapamycin treatment in an emulsified gel preparation, digital caliper
# Description: In certain embodiments, dermal atrophy is evaluated by measurement of the dermal layer utilizing a calibrated digital caliper measurement of the dermal layer. In other embodiments, improvement in seborrheic keratosis, lentigines, pseudoscars, coarse wrinkles, and epidermal thickening is evaluated through an investigator evaluation rating scale of 1-4, in which 1 is normal with no sign of lesion; 2 represents minor lesions; 3 represents lesions that are distinct features relative to normal skin; and 4 represents lesions that are of high severity. […] In yet other embodiments, lesions are evaluated by area measurement using manual measurement of the lesion or through analysis of images taken by investigators or research study staff.
# Patients presenting to a physician with a diagnosis of dermal atrophy, seborrheic keratosis, actinic keratosis, lentigines, senile pseudoscars, or coarse wrinkles were selected for administration of a composition of the invention. Dermal thickness was quantified using a Mitoutoyo digital caliper with certified accuracy to 0.001 mm. […]
# A single site open label study was performed. A patient presenting with an area of dermal atrophy and actinic keratosis on the hand was evaluated for application of Formulation R. the contralateral hand with similar dermal thickness but no actinic keratosis was used as a control. […]
smiles,measurement,setting,value
CO[C@H]1C[C@@H]2CC[C@@H](C)[C@@](O)(O2)C(=O)C(=O)N2CCCC[C@H]2C(=O)O[C@H]([C@H](C)C[C@@H]2CC[C@@H](O)[C@H](OC)C2)CC(=O)[C@H](C)/C=C(\C)[C@@H](O)[C@@H](OC)C(=O)[C@H](C)C[C@H](C)/C=C/C=C/C=C/1C [rapamycin],basal respiration,[1]; rapamycin-treated (1 nM) vs standard culture,significantly lower
same,basal respiration when exposed to NRTIs,[1]; rapamycin-treated cells (1 nM),did not exhibit an increase
same,maximal respiration when exposed to NRTIs,[1]; rapamycin-treated cells (1 nM),did not exhibit an increase
same,proton leak following exposure to NRTIs,[1]; rapamycin-treated cells (1 nM),did not exhibit an increase
same,ATP-linked respiration,[1]; rapamycin-treated cultures (1 nM),reduced
same,high molecular weight forms of p53,p53 and MDM2,prominent
same,dermal thickness in atrophic skin,[2],increases dermal thickness
